Source: article PMC9050923, “6,N^2-Diaryl-1,3,5-triazine-2,4-diamines: synthesis, antiproliferative activity and 3D-QSAR modeling” (RSC Advances, 2020)
Read-outs that look alike come from different tables or passages of the source.

Key:
Type in all cases: cell-based
[1] = tested on: MDA-MB231; test: MTT assay, MDA-MB231 breast cancer cells; details: for viability at 10 µM / GI50: Homo sapiens, MDA-MB-231; for viability at 10 µM: read-out: Percentage of cell viability MDA-MB231
Description: (§1) The prepared compounds 1–126 were tested on three breast cancer cell lines namely, MDA-MB231, SKBR-3 and MCF-7 using MTT assay. SKBR-3 and MCF-7 cell lines are estrogen and progesterone hormone positive cell lines often used as a model for the hormone therapy.[18] MDA-MB231 is triple negative breast cancer cell line, which is negative to estrogen and progesterone receptors and human epidermal growth factor receptor 2, a perfect model for chemotherapy.[18] Initially, all the prepared compounds 1–126 were tested on these three cancer cell lines at the screening concentration (10 μM) and percentage of cell viability was calculated 72 h after the treatment (Table 1).
(§2) The growth inhibitory effect of the compounds was determined on breast tumor cell line (MDA-MB231, SKBR-3 and MCF-7) at different concentrations with methotrexate and nilotinib as positive controls (Table 2).
(§3) The cytotoxic activity of 6,N^2-diaryl-1,3,5-triazine-2,4-diamines (1–126) was evaluated against three breast carcinoma cell lines (MDA-MB231, SKBR-3, and MCF-7) and normal breast cell line (MCF-10A) by MTT assay.[22] All cells were obtained from the American Type Culture Collection and were grown in 10% fetal bovine serum and 1% pen-strep antibiotic supplemented media (DMEM for MDA-MB231 and SKBR-3, RPMI for MCF-7, and MEGM for MCF-10A). For MTT assay, 20 000 to 75 000 cells per mL (based on the doubling time for each cell line) were seeded in 96 well plates and incubated for 24 h at 37 °C in 5% CO2 incubator. Then, compounds at different concentrations were added followed by the incubation at 37 °C for 72 h. After that, MTT solution (0.5 mg mL^−1) was added and the plates were incubated for another 4 h. The supernatant was then discarded and 100 μL of DMSO was added to each well. The plates were then read by Tecan NanoQuant (model: infinite m200 pro) plate reader and absorbance was measured at 570 nm. GI50 values were calculated using sigmoidal concentration–response curves (see ESI ^†) generated using the GraphPad Prism 7 program. Three independent experiments were carried out and the data were represented as mean of the three experiments.

[2] = tested on: SKBR-3; test: MTT assay, SKBR-3 breast cancer cells; details: for viability at 10 µM / GI50: Homo sapiens, SK-BR-3; for viability at 10 µM: read-out: Percentage of cell viability SKBR-3; for GI50: 72 h, mean of three independent experiments ± SEM
Description: as §1, §2, §3

[3] = tested on: MCF-7; test: MTT assay, MCF-7 breast cancer cells; details: for viability at 10 µM / GI50: Homo sapiens; for viability at 10 µM: MCF7, 10 μM, read-out: Percentage of cell viability MCF-7; for GI50: MCF7, 72 h, mean of three independent experiments ± SEM
Description: as §1, §2, §3

[4] = tested on: MCF-10A; test: MTT assay, MCF-10A normal breast cells; details: Homo sapiens, 72 h, read-out: GI50 (μM) ± SEM MCF-10A
Description: All the compounds, selected for determination of GI50 values against MDA-MB231 cells, were also used for the experiments with MCF-10A normal breast cells.
as §3

[5] = 10 μM, 72 h after the treatment, MTT, mean of three independent experiments
[6] = 72 h, MTT, mean of three independent experiments ± SEM, read-out: GI50 (μM) ± SEM MDA-MB231
[7] = −log[GI50], MDA-MB231, read-out: Experimental pGI50 (converted)
[8] = 72 h after the treatment, mean of three independent experiments

Compound | GI50 [1, 6] | GI50 [1, 7] | GI50 ([2]; MTT) | GI50 [3] | viability at 10 µM [1, 5] | viability at 10 µM [2, 5] | viability at 10 µM [3, 8] | GI50 [4] | activity against SKBR-3 cells (in words) ([2]; SAR discussion, compared with MDA-MB231) | Percentage of cell viability MDA-MB231 [1, 5] | Percentage of cell viability SKBR-3 [2, 5] | Percentage of cell viability MCF-7 ([3]; 10 μM, 72 h after the treatment, mean of three independent experiments)
Nc1nc(Nc2ccc(OC(F)(F)F)cc2)nc(-c2cccc(F)c2)n1 [Compound 19] | 8.56 ± 0.59 µM | 8.51 µM | > 20 µM | 18.2 ± 1.28 µM | 50% | 100% | 76% | > 25 µM | – | – | – | –
COc1ccc(-c2nc(N)nc(Nc3ccccc3F)n2)cc1 [Compound 70] | 0.32 ± 0.04 µM | 0.324 µM | > 20 µM | > 20 µM | 9% | 46% | 63% | > 25 µM | – | – | – | –
COc1ccc(-c2nc(N)nc(Nc3ccccc3Cl)n2)cc1 [Compound 73] | 0.23 ± 0.03 µM | 0.229 µM | 1.1 ± 0.01 µM | > 20 µM | 10% | 47% | 84% | > 25 µM | equipotent | – | – | –
COc1ccc(-c2nc(N)nc(Nc3cccc(Cl)c3)n2)cc1 [Compound 74] | 1.33 ± 0.17 µM | 1.32 µM | 0.18 ± 0.04 µM | 18.3 ± 1.11 µM | 22% | 45% | 86% | > 25 µM | – | – | – | –
COc1ccc(-c2nc(N)nc(Nc3ccccc3OC)n2)cc1 [Compound 78] | 13.2 ± 0.93 µM | 13.2 µM | 2.15 ± 0.12 µM | > 20 µM | 50% | 66% | 57% | > 25 µM | – | – | – | –
COc1ccc(-c2nc(N)nc(Nc3cccnc3)n2)cc1 [Compound 81] | 14 ± 1.33 µM | – | 15.6 ± 1.06 µM | > 20 µM | 46% | 77% | 91% | > 25 µM | – | – | – | –
COc1ccccc1Nc1nc(N)nc(-c2ccc(OC(F)(F)F)cc2)n1 [Compound 95] | 12.8 ± 0.76 µM | 12.9 µM | > 20 µM | > 20 µM | 46% | 81% | 88% | > 25 µM | – | – | – | –
Nc1nc(Nc2cccnc2)nc(-c2ccc(OC(F)(F)F)cc2)n1 [Compound 99] | 11.5 ± 1.51 µM | 11.5 µM | > 20 µM | > 20 µM | 33% | 81% | 85% | > 25 µM | – | – | – | –
CN(C)c1ccc(-c2nc(N)nc(Nc3ccccc3)n2)cc1 [Compound 100] | 0.36 ± 0.07 µM | 0.363 µM | 4.19 ± 0.37 µM | > 20 µM | 21% | 61% | 80% | > 25 µM | – | – | – | –
CN(C)c1ccc(-c2nc(N)nc(Nc3ccccc3F)n2)cc1 [Compound 101] | 0.06 ± 0.001 µM | 0.0603 µM | 0.29 ± 0.04 µM | > 20 µM | 28% | 51% | 88% | > 25 µM | – | – | – | –
Nc1nc(Nc2ccccc2Cl)nc(-c2cccs2)n1 [Compound 118] | – | – | – | – | 100% | 78% | 91% | – | – | – | – | –
Nc1nc(Nc2ccc(Cl)cc2)nc(-c2cccs2)n1 [Compound 119] | – | – | – | – | 100% | 89% | 98% | – | – | – | – | –
COc1ccc(Nc2nc(N)nc(-c3cccs3)n2)cc1 [Compound 123, N ^2-(4-Methoxyphenyl)-6-(thiophen-2-yl)-1,3,5-triazine-2,4-diamine] | – | – | – | – | 93% | 88% | 80% | – | – | – | – | –
Nc1nc(Nc2ccc(OC(F)(F)F)cc2)nc(-c2cccs2)n1 [Compound 124] | – | – | – | – | 100% | 86% | 85% | – | – | – | – | –
CC(C)c1ccc(Nc2nc(N)nc(-c3cccs3)n2)cc1 [Compound 125] | – | – | – | – | 100% | 86% | 89% | – | – | – | – | –
Nc1nc(Nc2cccnc2)nc(-c2cccs2)n1 [Compound 126] | – | – | – | – | 100% | 91% | 86% | – | – | – | – | –
N ^2-(4-Methoxyphenyl)-6-(4-methylphenyl)-1,3,5-triazine-2,4-diamine [Compound 65] | – | – | – | – | – | – | – | – | – | 97% | 88% | 87%

Continued, in another order:

GI50 [1, 6] | GI50 [1, 7] | GI50 ([2]; MTT) | GI50 [3] | Compound | viability at 10 µM [1, 5] | viability at 10 µM [2, 5] | viability at 10 µM [3, 8] | GI50 [4] | activity against SKBR-3 cells (in words) ([2]; SAR discussion, compared with MDA-MB231) | Percentage of cell viability MDA-MB231 [1, 5] | Percentage of cell viability SKBR-3 [2, 5] | Percentage of cell viability MCF-7 ([3]; 10 μM, 72 h after the treatment, mean of three independent experiments)
9.21 ± 0.38 µM | 9.12 µM | > 20 µM | > 20 µM | Nc1nc(Nc2ccc(F)cc2)nc(-c2cccc(F)c2)n1 [Compound 14] | 50% | 100% | 78% | > 25 µM | – | – | – | –
13.1 ± 0.91 µM | 13.2 µM | 17.2 ± 1.07 µM | > 20 µM | Nc1nc(Nc2ccc(Br)cc2)nc(-c2cccc(F)c2)n1 [Compound 16] | 43% | 89% | 80% | > 25 µM | – | – | – | –
3.96 ± 0.17 µM | 3.98 µM | > 20 µM | > 20 µM | Cc1ccc(Nc2nc(N)nc(-c3cccc(F)c3)n2)cc1 [Compound 17] | 29% | 90% | 71% | > 25 µM | – | – | – | –
6.18 ± 0.43 µM | 6.17 µM | 16.6 ± 1.38 µM | > 20 µM | COc1ccc(Nc2nc(N)nc(-c3cccc(F)c3)n2)cc1 [Compound 18] | 46% | 74% | 76% | > 25 µM | – | – | – | –
14.1 ± 1.52 µM | 14.1 µM | 19.4 ± 2.39 µM | > 20 µM | Nc1nc(Nc2ccc(F)cc2)nc(-c2ccc(Cl)cc2)n1 [Compound 36] | 49% | 98% | 100% | > 25 µM | – | – | – | –
0.17 ± 0.02 µM | 0.17 µM | 1.26 ± 0.18 µM | > 20 µM | Cc1ccc(Nc2nc(N)nc(-c3cccc(C)c3)n2)cc1 [Compound 56] | 12% | 62% | 67% | > 25 µM | – | – | – | –
15.2 ± 1.01 µM | 15.1 µM | > 20 µM | > 20 µM | Cc1cccc(-c2nc(N)nc(Nc3ccc(OC(F)(F)F)cc3)n2)c1 [Compound 58] | 50% | 100% | 73% | > 25 µM | – | – | – | –
12.2 ± 1.15 µM | 12.3 µM | > 20 µM | > 20 µM | Cc1ccc(-c2nc(N)nc(Nc3ccccc3F)n2)cc1 [Compound 61] | 50% | 79% | 73% | > 25 µM | – | – | – | –
10.7 ± 0.73 µM | 10.7 µM | > 20 µM | 20.2 ± 1.95 µM | Cc1ccc(-c2nc(N)nc(Nc3ccc(F)cc3)n2)cc1 [Compound 62] | 48% | 78% | 100% | > 25 µM | – | – | – | –
0.95 ± 0.04 µM | 0.955 µM | 3.38 ± 0.36 µM | > 20 µM | COc1ccc(-c2nc(N)nc(Nc3cccc(C)c3)n2)cc1 [Compound 77] | 22% | 40% | 79% | > 25 µM | – | – | – | –
